# Paper PMC2834185 (Nature chemical biology, 2010)
# Entries after “also recorded” stand apart in the source; their conditions may differ.
# Assays:
# [1] = test system: embryonic zebrafish; experiment: photomotor response; format: in vivo; conditions: for effect on PMR excitation phase (motor response to the first stimulus) / effect on PMR refractory period (response to the second stimulus) / effect on PMR latency period / effect on motor activity in the PMR: embryonic zebrafish; for effect on PMR excitation phase (motor response to the first stimulus) / effect on PMR latency period / effect on motor activity in the PMR: light stimulus; for effect on PMR refractory period (response to the second stimulus): second light pulse; for suppression of AzMet behavioral effects (PMR excitation): AzMet co—treated with 2—PAM and atropine
# [2] = test system: embryonic zebrafish; experiment: embryonic touch response; format: in vivo; conditions: touch stimulus
# [3] = target: purified AChE (Homo sapiens, UniProt P22303); experiment: AChE activity assay in vitro; conditions: 10 μM
# Chain of purified AChE (P22303 32-614): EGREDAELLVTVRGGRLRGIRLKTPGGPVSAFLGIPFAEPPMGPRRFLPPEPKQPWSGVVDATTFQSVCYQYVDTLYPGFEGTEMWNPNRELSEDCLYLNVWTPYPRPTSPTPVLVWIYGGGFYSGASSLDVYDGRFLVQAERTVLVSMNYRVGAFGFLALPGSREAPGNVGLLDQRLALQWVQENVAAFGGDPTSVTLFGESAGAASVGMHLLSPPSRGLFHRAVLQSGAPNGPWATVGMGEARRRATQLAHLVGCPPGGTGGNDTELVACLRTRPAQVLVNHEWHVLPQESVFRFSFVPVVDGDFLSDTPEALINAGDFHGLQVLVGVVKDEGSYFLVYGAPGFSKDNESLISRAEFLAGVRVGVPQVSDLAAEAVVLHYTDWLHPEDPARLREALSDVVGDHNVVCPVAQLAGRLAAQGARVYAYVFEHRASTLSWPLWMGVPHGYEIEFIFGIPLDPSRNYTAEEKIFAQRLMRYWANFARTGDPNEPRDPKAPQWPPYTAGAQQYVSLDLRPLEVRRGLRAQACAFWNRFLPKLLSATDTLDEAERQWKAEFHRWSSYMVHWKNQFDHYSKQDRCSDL
# [4] = target: T1, MAO—B (Homo sapiens, UniProt P27338); conditions: in vitro; warfarin at 10 μM
# T1 sequence (P27338 1-520): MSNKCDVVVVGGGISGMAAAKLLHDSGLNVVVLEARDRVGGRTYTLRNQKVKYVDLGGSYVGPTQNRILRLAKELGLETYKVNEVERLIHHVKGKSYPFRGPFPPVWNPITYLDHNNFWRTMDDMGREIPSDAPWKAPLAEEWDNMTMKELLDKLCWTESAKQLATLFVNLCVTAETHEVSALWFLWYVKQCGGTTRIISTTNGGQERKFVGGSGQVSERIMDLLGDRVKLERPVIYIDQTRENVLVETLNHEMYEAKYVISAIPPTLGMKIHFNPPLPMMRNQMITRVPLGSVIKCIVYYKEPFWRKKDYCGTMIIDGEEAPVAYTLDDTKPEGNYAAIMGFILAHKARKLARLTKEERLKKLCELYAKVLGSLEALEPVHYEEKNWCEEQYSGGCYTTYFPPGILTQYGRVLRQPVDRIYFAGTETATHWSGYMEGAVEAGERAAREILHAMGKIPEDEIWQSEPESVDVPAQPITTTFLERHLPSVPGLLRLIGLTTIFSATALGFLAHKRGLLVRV
smiles,measurement,setting,value
O=[N+]([O-])c1ccc2nc(N3CCNCC3)ccc2c1 [6—nitroquipazine],effect on PMR excitation phase (motor response to the first stimulus),[1],exhibited a robust but brief motor response to the first stimulus
same,effect on PMR refractory period (response to the second stimulus),[1],also responded to the second stimulus
same,effect on PMR refractory period (response to the second stimulus),[1]; listed as 6—Nitroquipazine,modulates the PMR refractory period
O=C(CCCN1C(=O)c2ccccc2C1=O)N1CCCCCC1 [STR—1],phenotype in the ETR assay,[2],slow—to—relax (STR) phenotype
Oc1cc2c(cc1O)[C@H]1c3ccccc3CN[C@@H]1CC2 (racemic) [dihydrexidine],effect on PMR latency period,[1],prolonged latency period
CCCN1CCO[C@@H]2c3cc(O)ccc3OC[C@H]21 [PD128907],effect on PMR latency period,[1],prolonged latency period
C[C@]12CC[C@H]3[C@@H](CC[C@]4(O)C[C@@H](O)CC[C@]34C(=O)O)[C@@]1(O)CC[C@@H]2C1=CC(=O)OC1 [strophanthidinic acid],effect on PMR excitation phase (motor response to the first stimulus),[1],prolongation of the PMR excitation period
CN1CCc2cccc3c2[C@H]1Cc1ccc(O)c(O)c1-3 [apomorphine],effect on PMR latency period,[1],lengthened the PMR latency period
same,effect on PMR latency period,[1]; listed as Apomorphine,increases PMR latency period duration
CC(C)(C)NCC(O)c1cc(Cl)c(N)c(Cl)c1 (stereo not drawn) [clenbuterol],effect on motor activity in the PMR,[1],elevated activity in all PMR phases
CN1[C@@H]2CC[C@H]1C[C@@H](OC(=O)C(CO)c1ccccc1)C2 (stereo partly drawn) [atropine],suppression of AzMet behavioral effects (PMR excitation),[1],counteracted the behavioral effects of AzMet
CN1C(=O)CN=C(c2ccccc2)c2cc(Cl)ccc21 [diazepam],effect on motor activity in the PMR,[1],decreased activity
same,effect on motor activity in the PMR,[1]; listed as Diazepam,reduces motor activity
CC(C)NCC(O)c1ccc(O)c(O)c1 (stereo not drawn) [isoproterenol],effect on motor activity in the PMR,[1],increased motor activity throughout the PMR; also recorded: elevated activity in all PMR phases
same,effect on motor activity in the PMR,[1]; listed as Isoproterenol,increases zebrafish motor activity
CNC[C@H](O)c1ccc(O)c(O)c1 [epinephrine],effect on motor activity in the PMR,[1],elevated activity in all PMR phases
O=C1c2ccccc2-c2nc3ncnn3c(-c3ccccc3Cl)c21 [STR—2],inhibition of purified AChE in vitro,[3],did not inhibit purified AChE in vitro
same,phenotype in the ETR assay,[2],slow—to—relax (STR) phenotype
COP(=S)(OC)SCn1nnc2ccccc2c1=O [azinphos methyl],paralysis in zebrafish,[1]; compared to untreated controls,caused paralysis in zebrafish
same,effect on PMR excitation phase (motor response to the first stimulus),[1],reduced levels of PMR excitation
C[n+]1ccccc1C=NO [pralidoxime],suppression of AzMet behavioral effects (PMR excitation),[1],counteracted the behavioral effects of AzMet
COc1ccc(C(=O)O[C@H]2CC[C@@]3(C)[C@@H]4CC[C@H]5[C@]6(O)C[C@H](O)[C@@]7(O)[C@@H](CN8C[C@@H](C)CC[C@H]8[C@@]7(C)O)[C@]6(O)C[C@@]53O[C@]24O)cc1OC [veratridine],effect on PMR excitation phase (motor response to the first stimulus),[1],prolongation of the PMR excitation period
CC(=O)CC(c1ccccc1)c1c(O)c2ccccc2oc1=O (stereo not drawn) [warfarin],PMR magnitude stimulant (MAG) phenotype,"[1]; increased PMR excitation magnitude and duration, warfarin at 10 μM",do not produce a MAG phenotype
same,inhibition of MAO activity,[4],nor inhibit MAO activity
CNC(=O)Oc1ccc2c(c1)[C@]1(C)CCN(C)[C@@H]1N2C [eserine],phenotype in the ETR assay,[2],slow—to—relax (STR) phenotype
CCN1C[C@]2(COC)[C@H](O)C[C@H](OC)[C@@]34[C@@H]5C[C@@]6(O)[C@H](OC(=O)c7ccccc7)[C@@H]5[C@@](OC(C)=O)([C@@H]([C@H](OC)[C@H]23)[C@@H]14)[C@@H](O)[C@@H]6OC [aconitine],effect on PMR excitation phase (motor response to the first stimulus),[1],prolongation of the PMR excitation period
C[C@]12CC[C@H](O)C[C@H]1CC[C@@H]1[C@@H]2CC[C@]2(C)[C@@H](C3=CC(=O)OC3)CC[C@]12O [digitoxigenin],toxicity in the PMR assay,[1]; concentrations above the active range (Supplementary Fig. 1),induced toxicities at higher concentrations
same,effect on PMR excitation phase (motor response to the first stimulus),[1],caused a vigorous and prolonged motor response to the stimulus; also recorded: prolongation of the PMR excitation period
same,effect on PMR excitation phase (motor response to the first stimulus),[1]; listed as Digitoxigenin,prolongs duration of the PMR excitation phase
CC(C)[C@@]1(NC(=O)[C@@H]2C[C@@H]3c4cccc5[nH]cc(c45)C[C@H]3N(C)C2)O[C@@]2(O)[C@@H]3CCCN3C(=O)[C@H](Cc3ccccc3)N2C1=O [dihydroergocristine],effect on PMR latency period,[1],prolonged latency period
